From PubChem BioAssay (NCI)
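Five compound concentrations were applied to cells in 96-well plates for 48 hours; endpoints were derived by simple linear interpolation of the resulting dose-response curve. The concentration for full growth arrest is given as TGI.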

Legend:
Assay in all cases: DTP human tumour cell line panel, 48 h
786-0 renal = test system: 786-0 renal
A498 renal = test system: A498 renal
A549 NSCLC = test system: A549 NSCLC
ACHN renal = test system: ACHN renal
CAKI-1 renal = test system: CAKI-1 renal
CCRF-CEM leukemia = test system: CCRF-CEM leukemia
COLO 205 colon = test system: COLO 205 colon
DLD-1 colon = test system: DLD-1 colon
DMS 114 small cell lung = test system: DMS 114 small cell lung
DMS 273 small cell lung = test system: DMS 273 small cell lung
EKVX NSCLC = test system: EKVX NSCLC
HCC-2998 colon = test system: HCC-2998 colon
HCT-116 colon = test system: HCT-116 colon
HCT-15 colon = test system: HCT-15 colon
HL-60(TB) leukemia = test system: HL-60(TB) leukemia
HOP-18 NSCLC = test system: HOP-18 NSCLC
HOP-62 NSCLC = test system: HOP-62 NSCLC
HOP-92 NSCLC = test system: HOP-92 NSCLC
HT29 colon = test system: HT29 colon
IGROV1 ovarian = test system: IGROV1 ovarian
K-562 leukemia = test system: K-562 leukemia
KM12 colon = test system: KM12 colon
KM20L2 colon = test system: KM20L2 colon
LOX IMVI melanoma = test system: LOX IMVI melanoma
LXFL 529 NSCLC = test system: LXFL 529 NSCLC
M14 melanoma = test system: M14 melanoma
M19-MEL melanoma = test system: M19-MEL melanoma
MALME-3M melanoma = test system: MALME-3M melanoma
MOLT-4 leukemia = test system: MOLT-4 leukemia
NCI-H226 lung = test system: NCI-H226 lung
NCI-H23 lung = test system: NCI-H23 lung
NCI-H460 lung = test system: NCI-H460 lung
NCI-H522 lung = test system: NCI-H522 lung
OVCAR-3 ovarian = test system: OVCAR-3 ovarian
OVCAR-4 ovarian = test system: OVCAR-4 ovarian
OVCAR-5 ovarian = test system: OVCAR-5 ovarian
OVCAR-8 ovarian = test system: OVCAR-8 ovarian
RPMI-8226 leukemia = test system: RPMI-8226 leukemia
RXF 393 renal = test system: RXF 393 renal
SF-268 CNS = test system: SF-268 CNS
SF-295 CNS = test system: SF-295 CNS
SF-539 CNS = test system: SF-539 CNS
SK-MEL-2 melanoma = test system: SK-MEL-2 melanoma
SK-MEL-28 melanoma = test system: SK-MEL-28 melanoma
SK-MEL-5 melanoma = test system: SK-MEL-5 melanoma
SK-OV-3 ovarian = test system: SK-OV-3 ovarian
SN12C renal = test system: SN12C renal
SNB-19 CNS = test system: SNB-19 CNS
SNB-75 CNS = test system: SNB-75 CNS
SNB-78 CNS = test system: SNB-78 CNS
SR leukemia = test system: SR leukemia
SW-620 colon = test system: SW-620 colon
TK-10 renal = test system: TK-10 renal
U251 CNS = test system: U251 CNS
UACC-257 melanoma = test system: UACC-257 melanoma
UACC-62 melanoma = test system: UACC-62 melanoma
UO-31 renal = test system: UO-31 renal
XF 498 CNS = test system: XF 498 CNS
RXF-631 renal = test system: RXF-631 renal

O=C1C2c3[nH]c4ccccc4c3C3CCCCCC3C2C(=O)N1c1ccccc1 (stereo unspecified) was tested, and the TGI (786-0 renal) was > 100 µM, the TGI (A498 renal) was > 57.1 µM and the TGI (A549 NSCLC) was > 67.5 µM. The TGI (ACHN renal) was > 91.1 µM, the TGI (CAKI-1 renal) was > 100 µM and the TGI (CCRF-CEM leukemia) was 23.1 µM. The TGI (COLO 205 colon) was > 100 µM, the TGI (DLD-1 colon) was > 100 µM and the TGI (DMS 114 small cell lung) was > 100 µM. For the same molecule, the TGI (DMS 273 small cell lung) was > 100 µM, the TGI (EKVX NSCLC) was > 100 µM and the TGI (HCC-2998 colon) was > 100 µM. For the same molecule, the TGI (HCT-116 colon) was 62.7 µM, the TGI (HCT-15 colon) was > 100 µM and the TGI (HL-60(TB) leukemia) was > 70.3 µM. The TGI (HOP-18 NSCLC) was > 60.4 µM, the TGI (HOP-62 NSCLC) was 41.7 µM and the TGI (HOP-92 NSCLC) was 74.7 µM. The TGI (HT29 colon) was > 100 µM, the TGI (IGROV1 ovarian) was 72 µM and the TGI (K-562 leukemia) was > 100 µM. The TGI (KM12 colon) was > 100 µM, the TGI (KM20L2 colon) was > 100 µM and the TGI (LOX IMVI melanoma) was > 49.9 µM. For the same molecule, the TGI (LXFL 529 NSCLC) was > 100 µM, the TGI (M14 melanoma) was > 49.3 µM and the TGI (M19-MEL melanoma) was > 100 µM. The TGI (MALME-3M melanoma) was 41.1 µM, the TGI (MOLT-4 leukemia) was 47.7 µM and the TGI (NCI-H226 lung) was > 64.3 µM. The TGI (NCI-H23 lung) was > 82.9 µM, the TGI (NCI-H460 lung) was > 77.4 µM and the TGI (NCI-H522 lung) was > 100 µM. For the same molecule, the TGI (OVCAR-3 ovarian) was 35.7 µM, the TGI (OVCAR-4 ovarian) was > 24.5 µM and the TGI (OVCAR-5 ovarian) was > 100 µM. The TGI (OVCAR-8 ovarian) was 34 µM, the TGI (RPMI-8226 leukemia) was > 100 µM and the TGI (RXF 393 renal) was 37.7 µM. For the same molecule, the TGI (SF-268 CNS) was 99.8 µM, the TGI (SF-295 CNS) was > 65.5 µM and the TGI (SF-539 CNS) was > 52 µM. For the same molecule, the TGI (SK-MEL-2 melanoma) was 67.2 µM, the TGI (SK-MEL-28 melanoma) was 97.7 µM and the TGI (SK-MEL-5 melanoma) was > 100 µM. For the same molecule, the TGI (SK-OV-3 ovarian) was 34.1 µM, the TGI (SN12C renal) was > 36.5 µM and the TGI (SNB-19 CNS) was > 74.1 µM. For the same molecule, the TGI (SNB-75 CNS) was 8.41 µM, the TGI (SNB-78 CNS) was 70.7 µM and the TGI (SR leukemia) was > 53.9 µM. For the same molecule, the TGI (SW-620 colon) was > 100 µM, the TGI (TK-10 renal) was > 100 µM and the TGI (U251 CNS) was > 45.6 µM. For the same molecule, the TGI (UACC-257 melanoma) was 84.6 µM, the TGI (UACC-62 melanoma) was > 100 µM and the TGI (UO-31 renal) was 99.4 µM. The TGI (XF 498 CNS) was 47.4 µM.
With Nc1nnc(CCC(=O)Nc2cc(Cl)ccc2Cl)n1N the TGI (A498 renal) was > 100 µM, the TGI (A549 NSCLC) was > 100 µM and the TGI (ACHN renal) was > 100 µM. The TGI (CAKI-1 renal) was > 100 µM, the TGI (CCRF-CEM leukemia) was > 100 µM and the TGI (COLO 205 colon) was > 100 µM. The TGI (DLD-1 colon) was > 100 µM, the TGI (DMS 114 small cell lung) was > 100 µM and the TGI (DMS 273 small cell lung) was > 100 µM. For the same molecule, the TGI (EKVX NSCLC) was > 100 µM, the TGI (HCC-2998 colon) was > 100 µM and the TGI (HCT-116 colon) was > 100 µM. For the same molecule, the TGI (HCT-15 colon) was > 100 µM, the TGI (HL-60(TB) leukemia) was > 100 µM and the TGI (HOP-18 NSCLC) was > 100 µM. The TGI (HOP-62 NSCLC) was > 100 µM, the TGI (HOP-92 NSCLC) was > 100 µM and the TGI (HT29 colon) was > 100 µM. The TGI (IGROV1 ovarian) was > 100 µM, the TGI (K-562 leukemia) was > 100 µM and the TGI (KM12 colon) was > 100 µM. For the same molecule, the TGI (KM20L2 colon) was > 100 µM, the TGI (LOX IMVI melanoma) was > 100 µM and the TGI (LXFL 529 NSCLC) was > 100 µM. The TGI (M14 melanoma) was > 100 µM, the TGI (M19-MEL melanoma) was > 100 µM and the TGI (MALME-3M melanoma) was > 100 µM. For the same molecule, the TGI (MOLT-4 leukemia) was > 100 µM, the TGI (NCI-H226 lung) was > 100 µM and the TGI (NCI-H23 lung) was > 100 µM. For the same molecule, the TGI (NCI-H460 lung) was > 100 µM, the TGI (NCI-H522 lung) was > 100 µM and the TGI (OVCAR-3 ovarian) was > 100 µM. The TGI (OVCAR-4 ovarian) was > 100 µM, the TGI (OVCAR-5 ovarian) was > 100 µM and the TGI (OVCAR-8 ovarian) was > 100 µM. The TGI (RPMI-8226 leukemia) was > 100 µM, the TGI (RXF 393 renal) was > 100 µM and the TGI (RXF-631 renal) was > 100 µM. For the same molecule, the TGI (SF-268 CNS) was > 100 µM, the TGI (SF-295 CNS) was > 100 µM and the TGI (SF-539 CNS) was > 100 µM. The TGI (SK-MEL-2 melanoma) was > 100 µM, the TGI (SK-MEL-28 melanoma) was > 100 µM and the TGI (SK-MEL-5 melanoma) was > 100 µM. The TGI (SK-OV-3 ovarian) was > 100 µM, the TGI (SN12C renal) was > 100 µM and the TGI (SNB-19 CNS) was > 100 µM. The TGI (SNB-75 CNS) was > 100 µM, the TGI (SNB-78 CNS) was > 100 µM and the TGI (SR leukemia) was > 100 µM. For the same molecule, the TGI (SW-620 colon) was > 100 µM, the TGI (TK-10 renal) was > 100 µM and the TGI (U251 CNS) was > 100 µM. The TGI (UACC-257 melanoma) was > 100 µM, the TGI (UACC-62 melanoma) was > 100 µM and the TGI (UO-31 renal) was > 100 µM. For the same molecule, the TGI (XF 498 CNS) was > 100 µM.
